Type in all cases: binding
The target of assay [1] is T1, HeLa cell extract proteins (Homo sapiens, UniProt Q00325).
T1 construct: endogenous in cells; host or cells: HeLa cell extract
T1 sequence (Q00325 50-362): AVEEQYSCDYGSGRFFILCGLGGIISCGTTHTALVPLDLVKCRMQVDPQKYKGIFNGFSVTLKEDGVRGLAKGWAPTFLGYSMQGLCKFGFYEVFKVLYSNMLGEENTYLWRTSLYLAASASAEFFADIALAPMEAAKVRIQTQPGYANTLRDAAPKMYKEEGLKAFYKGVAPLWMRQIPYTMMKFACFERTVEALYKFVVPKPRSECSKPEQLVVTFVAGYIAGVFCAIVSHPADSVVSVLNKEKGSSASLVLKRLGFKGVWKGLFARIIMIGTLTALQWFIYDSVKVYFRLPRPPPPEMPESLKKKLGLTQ

Assay [2] concerns the target T2, HeLa cell extract proteins (Homo sapiens, UniProt Q9UI30).
T2 construct: endogenous in cells; host or cells: HeLa cell extract
T2 sequence (Q9UI30 1-125): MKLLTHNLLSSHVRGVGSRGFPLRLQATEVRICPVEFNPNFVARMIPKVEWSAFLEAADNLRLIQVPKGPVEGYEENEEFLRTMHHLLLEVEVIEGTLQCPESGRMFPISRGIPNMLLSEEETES

For assay [3], the target named is T3, HeLa cell extract proteins (Homo sapiens, UniProt P13667).
T3 construct: endogenous in cells; host or cells: HeLa cell extract
T3 sequence (P13667 21-645): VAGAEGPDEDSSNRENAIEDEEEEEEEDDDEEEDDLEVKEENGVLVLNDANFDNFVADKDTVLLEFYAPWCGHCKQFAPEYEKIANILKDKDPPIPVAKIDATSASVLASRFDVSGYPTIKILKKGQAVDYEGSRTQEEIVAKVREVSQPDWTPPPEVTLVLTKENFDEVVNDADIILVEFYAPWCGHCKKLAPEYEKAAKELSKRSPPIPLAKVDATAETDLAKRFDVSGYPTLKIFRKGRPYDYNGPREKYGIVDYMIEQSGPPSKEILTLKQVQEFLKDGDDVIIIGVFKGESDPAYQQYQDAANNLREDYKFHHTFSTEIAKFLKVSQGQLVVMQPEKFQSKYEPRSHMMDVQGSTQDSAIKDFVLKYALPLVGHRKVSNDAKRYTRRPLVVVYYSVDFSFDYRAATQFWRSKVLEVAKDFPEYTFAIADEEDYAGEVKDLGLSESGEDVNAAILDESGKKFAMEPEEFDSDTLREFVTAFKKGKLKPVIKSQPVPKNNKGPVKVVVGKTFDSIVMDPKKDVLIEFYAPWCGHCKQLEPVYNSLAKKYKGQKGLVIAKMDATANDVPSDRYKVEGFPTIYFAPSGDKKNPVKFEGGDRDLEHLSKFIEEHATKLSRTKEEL

The target of assay [4] is T4, HeLa cell extract proteins (Homo sapiens, UniProt O00764).
T4 construct: endogenous in cells; host or cells: HeLa cell extract
T4 sequence (O00764 1-312): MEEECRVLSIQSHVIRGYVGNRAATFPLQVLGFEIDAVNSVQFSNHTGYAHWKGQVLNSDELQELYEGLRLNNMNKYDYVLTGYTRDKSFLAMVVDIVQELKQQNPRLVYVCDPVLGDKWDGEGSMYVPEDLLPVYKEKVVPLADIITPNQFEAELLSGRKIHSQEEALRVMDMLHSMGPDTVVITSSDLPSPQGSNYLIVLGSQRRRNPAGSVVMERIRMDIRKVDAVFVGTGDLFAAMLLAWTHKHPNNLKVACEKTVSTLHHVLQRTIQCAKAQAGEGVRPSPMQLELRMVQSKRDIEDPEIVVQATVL

Assay [5] has as its target T5, HeLa cell extract proteins (Homo sapiens, UniProt P62195).
T5 construct: endogenous in cells; host or cells: HeLa cell extract

The target in assay [6] is T6, HeLa cell extract proteins (Homo sapiens, UniProt P78527).
T6 construct: endogenous in cells; host or cells: HeLa cell extract
T6 sequence (P78527 whole entry): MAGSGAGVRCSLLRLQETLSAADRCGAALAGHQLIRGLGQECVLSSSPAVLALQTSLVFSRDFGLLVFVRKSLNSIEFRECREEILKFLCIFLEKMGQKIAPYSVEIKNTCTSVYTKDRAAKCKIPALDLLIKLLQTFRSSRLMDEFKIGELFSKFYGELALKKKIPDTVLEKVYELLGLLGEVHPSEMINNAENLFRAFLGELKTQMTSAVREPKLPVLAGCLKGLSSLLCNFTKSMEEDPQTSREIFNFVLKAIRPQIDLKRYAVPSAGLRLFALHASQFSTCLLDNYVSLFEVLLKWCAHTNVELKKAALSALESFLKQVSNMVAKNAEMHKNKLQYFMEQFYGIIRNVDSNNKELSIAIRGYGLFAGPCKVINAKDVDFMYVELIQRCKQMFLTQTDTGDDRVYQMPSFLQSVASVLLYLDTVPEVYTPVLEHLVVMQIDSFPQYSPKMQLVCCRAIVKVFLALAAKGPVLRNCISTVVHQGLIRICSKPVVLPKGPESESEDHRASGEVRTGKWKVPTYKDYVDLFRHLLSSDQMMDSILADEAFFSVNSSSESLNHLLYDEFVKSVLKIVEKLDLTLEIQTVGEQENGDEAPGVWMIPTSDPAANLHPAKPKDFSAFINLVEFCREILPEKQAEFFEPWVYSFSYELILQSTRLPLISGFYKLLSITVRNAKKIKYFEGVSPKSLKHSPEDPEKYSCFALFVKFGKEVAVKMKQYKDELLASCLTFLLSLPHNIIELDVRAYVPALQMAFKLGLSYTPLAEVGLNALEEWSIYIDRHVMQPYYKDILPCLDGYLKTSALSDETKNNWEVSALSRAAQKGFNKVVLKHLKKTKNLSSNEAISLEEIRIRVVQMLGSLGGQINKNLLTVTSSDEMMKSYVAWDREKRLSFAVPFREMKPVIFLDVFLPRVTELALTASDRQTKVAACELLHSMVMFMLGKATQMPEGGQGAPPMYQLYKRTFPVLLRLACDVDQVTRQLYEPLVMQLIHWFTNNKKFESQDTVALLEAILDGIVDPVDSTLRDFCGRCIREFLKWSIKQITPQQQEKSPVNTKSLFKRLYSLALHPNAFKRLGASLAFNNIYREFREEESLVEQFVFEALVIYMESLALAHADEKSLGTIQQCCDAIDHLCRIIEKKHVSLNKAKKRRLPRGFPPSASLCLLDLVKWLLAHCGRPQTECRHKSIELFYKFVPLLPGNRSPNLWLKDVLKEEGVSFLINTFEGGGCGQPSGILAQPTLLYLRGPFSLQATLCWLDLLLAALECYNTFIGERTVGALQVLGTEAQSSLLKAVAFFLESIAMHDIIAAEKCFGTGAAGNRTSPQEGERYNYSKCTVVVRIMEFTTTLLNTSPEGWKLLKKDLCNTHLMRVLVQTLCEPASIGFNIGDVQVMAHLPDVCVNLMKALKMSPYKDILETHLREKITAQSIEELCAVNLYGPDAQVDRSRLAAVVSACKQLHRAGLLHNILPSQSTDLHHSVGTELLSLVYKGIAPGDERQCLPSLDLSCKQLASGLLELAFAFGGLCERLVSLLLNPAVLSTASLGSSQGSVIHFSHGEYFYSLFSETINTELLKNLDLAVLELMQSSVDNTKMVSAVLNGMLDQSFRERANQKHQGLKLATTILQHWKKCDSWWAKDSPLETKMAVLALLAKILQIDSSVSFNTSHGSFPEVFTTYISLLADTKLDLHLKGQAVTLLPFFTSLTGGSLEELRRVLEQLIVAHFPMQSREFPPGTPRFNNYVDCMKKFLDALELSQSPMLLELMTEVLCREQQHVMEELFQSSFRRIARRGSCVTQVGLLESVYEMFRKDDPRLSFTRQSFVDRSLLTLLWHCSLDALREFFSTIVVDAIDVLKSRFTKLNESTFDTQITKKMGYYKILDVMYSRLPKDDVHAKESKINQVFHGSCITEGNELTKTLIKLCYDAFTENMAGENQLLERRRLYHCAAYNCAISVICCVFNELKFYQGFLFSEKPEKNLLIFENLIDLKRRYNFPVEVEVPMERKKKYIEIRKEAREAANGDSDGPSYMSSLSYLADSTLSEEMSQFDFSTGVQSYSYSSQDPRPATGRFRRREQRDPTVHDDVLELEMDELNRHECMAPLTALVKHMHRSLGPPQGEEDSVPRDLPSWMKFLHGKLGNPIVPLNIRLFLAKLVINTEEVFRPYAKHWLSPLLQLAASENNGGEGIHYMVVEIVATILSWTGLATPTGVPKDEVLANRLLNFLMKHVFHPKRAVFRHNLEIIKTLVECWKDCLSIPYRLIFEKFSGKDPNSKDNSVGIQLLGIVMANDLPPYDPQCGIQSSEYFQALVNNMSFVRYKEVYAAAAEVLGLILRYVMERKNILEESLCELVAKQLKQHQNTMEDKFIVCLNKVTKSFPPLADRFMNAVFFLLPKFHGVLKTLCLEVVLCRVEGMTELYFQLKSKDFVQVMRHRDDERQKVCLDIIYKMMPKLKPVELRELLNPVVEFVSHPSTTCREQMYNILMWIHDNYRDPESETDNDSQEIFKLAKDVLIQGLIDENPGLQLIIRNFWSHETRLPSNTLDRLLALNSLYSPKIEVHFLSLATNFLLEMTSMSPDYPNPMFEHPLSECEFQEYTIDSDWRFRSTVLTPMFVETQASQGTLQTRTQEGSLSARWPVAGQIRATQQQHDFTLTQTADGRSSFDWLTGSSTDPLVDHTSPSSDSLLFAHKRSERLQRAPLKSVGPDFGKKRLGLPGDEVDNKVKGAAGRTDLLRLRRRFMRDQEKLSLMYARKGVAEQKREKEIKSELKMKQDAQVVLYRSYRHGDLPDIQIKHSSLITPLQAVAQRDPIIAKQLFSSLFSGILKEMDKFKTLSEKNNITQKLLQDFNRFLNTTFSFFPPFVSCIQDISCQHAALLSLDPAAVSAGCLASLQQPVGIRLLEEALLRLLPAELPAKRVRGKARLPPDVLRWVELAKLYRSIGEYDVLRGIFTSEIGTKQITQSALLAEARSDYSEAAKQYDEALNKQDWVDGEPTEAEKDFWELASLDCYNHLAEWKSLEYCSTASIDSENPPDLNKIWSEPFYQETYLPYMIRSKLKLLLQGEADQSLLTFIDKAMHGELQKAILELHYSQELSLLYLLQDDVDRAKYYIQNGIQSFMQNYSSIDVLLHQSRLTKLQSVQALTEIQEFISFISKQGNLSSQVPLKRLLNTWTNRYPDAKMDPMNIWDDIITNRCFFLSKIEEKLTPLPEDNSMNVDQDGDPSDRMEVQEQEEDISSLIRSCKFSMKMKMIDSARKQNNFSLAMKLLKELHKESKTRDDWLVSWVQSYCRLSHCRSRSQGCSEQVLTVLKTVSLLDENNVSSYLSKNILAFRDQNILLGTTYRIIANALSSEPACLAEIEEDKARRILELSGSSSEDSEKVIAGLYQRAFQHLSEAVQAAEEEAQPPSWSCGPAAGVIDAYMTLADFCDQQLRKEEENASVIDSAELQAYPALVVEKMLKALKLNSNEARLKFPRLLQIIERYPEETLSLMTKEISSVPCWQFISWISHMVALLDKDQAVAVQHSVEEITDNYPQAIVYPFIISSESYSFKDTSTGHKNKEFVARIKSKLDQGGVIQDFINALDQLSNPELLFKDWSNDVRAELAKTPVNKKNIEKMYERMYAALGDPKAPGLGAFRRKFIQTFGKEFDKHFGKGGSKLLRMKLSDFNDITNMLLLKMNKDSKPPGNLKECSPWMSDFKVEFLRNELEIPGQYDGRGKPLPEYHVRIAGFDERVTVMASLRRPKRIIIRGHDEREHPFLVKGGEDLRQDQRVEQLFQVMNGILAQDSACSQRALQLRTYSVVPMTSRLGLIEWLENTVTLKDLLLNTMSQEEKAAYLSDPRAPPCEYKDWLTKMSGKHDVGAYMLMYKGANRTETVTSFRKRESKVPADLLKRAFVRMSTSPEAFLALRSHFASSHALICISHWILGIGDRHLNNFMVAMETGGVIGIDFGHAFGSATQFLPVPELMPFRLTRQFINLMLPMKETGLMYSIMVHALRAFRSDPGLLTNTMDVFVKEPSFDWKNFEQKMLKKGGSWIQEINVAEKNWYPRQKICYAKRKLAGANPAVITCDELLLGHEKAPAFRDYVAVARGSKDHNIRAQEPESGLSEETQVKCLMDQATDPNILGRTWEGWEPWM

In assay [7] the target is T7, HeLa cell extract proteins (Homo sapiens, UniProt Q13347).
T7 construct: endogenous in cells; host or cells: HeLa cell extract

The target in assay [8] is T8, HeLa cell extract proteins (Homo sapiens, UniProt O95218).
T8 construct: endogenous in cells; host or cells: HeLa cell extract
T8 sequence (O95218 1-330): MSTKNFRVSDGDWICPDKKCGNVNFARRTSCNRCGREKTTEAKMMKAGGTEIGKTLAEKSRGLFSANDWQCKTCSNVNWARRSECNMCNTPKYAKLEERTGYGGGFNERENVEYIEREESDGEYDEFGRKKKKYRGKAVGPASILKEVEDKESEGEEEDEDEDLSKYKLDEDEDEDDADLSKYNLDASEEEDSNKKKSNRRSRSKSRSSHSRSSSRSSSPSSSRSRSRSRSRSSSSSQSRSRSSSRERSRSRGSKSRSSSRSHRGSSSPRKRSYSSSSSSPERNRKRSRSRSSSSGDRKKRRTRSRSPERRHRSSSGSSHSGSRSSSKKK

Assay [9] deals with T9, HeLa cell extract proteins (Homo sapiens, UniProt O75152).
T9 construct: endogenous in cells; host or cells: HeLa cell extract
T9 sequence (O75152 whole entry): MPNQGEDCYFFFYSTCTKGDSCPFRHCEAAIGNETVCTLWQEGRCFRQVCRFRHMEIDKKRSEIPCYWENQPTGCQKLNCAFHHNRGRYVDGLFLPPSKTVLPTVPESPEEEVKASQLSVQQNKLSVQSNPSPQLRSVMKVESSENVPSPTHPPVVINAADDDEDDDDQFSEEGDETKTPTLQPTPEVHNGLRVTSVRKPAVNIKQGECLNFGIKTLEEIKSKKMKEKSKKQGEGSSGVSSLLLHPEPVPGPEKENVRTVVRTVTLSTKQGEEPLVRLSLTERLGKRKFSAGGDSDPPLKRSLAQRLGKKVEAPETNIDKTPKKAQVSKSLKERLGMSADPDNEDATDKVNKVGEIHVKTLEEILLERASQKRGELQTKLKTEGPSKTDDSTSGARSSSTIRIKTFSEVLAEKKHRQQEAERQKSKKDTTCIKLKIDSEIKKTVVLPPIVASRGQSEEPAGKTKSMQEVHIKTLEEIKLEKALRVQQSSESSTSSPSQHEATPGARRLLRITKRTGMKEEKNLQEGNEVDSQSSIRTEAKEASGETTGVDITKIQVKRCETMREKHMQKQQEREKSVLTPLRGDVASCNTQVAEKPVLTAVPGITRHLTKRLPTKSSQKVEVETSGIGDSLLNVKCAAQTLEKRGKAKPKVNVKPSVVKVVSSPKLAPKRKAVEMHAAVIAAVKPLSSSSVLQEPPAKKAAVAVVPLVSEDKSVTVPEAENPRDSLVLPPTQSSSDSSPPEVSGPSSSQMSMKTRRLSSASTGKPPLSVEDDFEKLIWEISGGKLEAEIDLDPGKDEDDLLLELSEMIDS

[10] abbreviates: HeLa, protein PDIA4 (PROTEIN DISULFIDE-ISOMERASE A4 PRECURSOR.).
Setting [11] is: HeLa, protein PRKDC (ISOFORM 1 OF DNA-DEPENDENT PROTEIN KINASE CATALYTIC SUBUNIT).
[12] abbreviates: HeLa, protein ZC3H11A (ZINC FINGER CCCH DOMAIN-CONTAINING PROTEIN 11A).

This note sets out measurements from publication PMC6199744, “Development of Chemical Proteomics for the Folateome and Analysis of the Kinetoplastid Folateome” (ACS Infectious Diseases, 2018).

Like-named read-outs stand apart in the source and are kept apart here.

For `Nc1nc2cccc(-c3ccccc3)c2n1Cc1ccc(Cl)c(Cl)c1` [compound 3], the “fold changes relative to vehicle control” value in assay [1] (HeLa, protein SLC25A3) is 1; in assay [2] (HeLa, protein HSPC152) it was 1.04; in assay [3] (setting [10]) it was 0.75 fold; in assay [4] (HeLa, protein PDXK), 0.9; in assay [5] (protein PSMC5, HeLa), 1.05; in assay [6] (HeLa, protein PRKDC), 1.2. In addition, the “fold changes relative to vehicle control” value in assay [7] (protein EIF3I, HeLa) came to 1.02; in [8] (HeLa, protein ZRANB2), 0.98; in assay [9] (captured protein ZC3H11A, HeLa) it was 0.94.
Turning to `NCCOCCOCC(=O)Nc1nc2ncc(CNc3ccc(C(=O)NC(CCC(=O)O)C(=O)O)cc3)nc2c(=O)[nH]1` (stereo not drawn) [compound 6], the “fold changes relative to vehicle control” value in assay [1] (HeLa, protein SLC25A3) amounted to 1.04; in assay [2] (HeLa, protein HSPC152) it was 1.36; in assay [3] (protein PDIA4, HeLa), 1.14; in assay [4] (protein PDXK, HeLa), 0.87; in [5] (HeLa, protein PSMC5), 1.12; in [6] (setting [11]), 1.17. The “fold changes relative to vehicle control” value in [7] (HeLa, captured protein EIF3I) is reported as 0.98; in [8] (protein ZRANB2, HeLa) it was 0.95; in assay [9] (setting [12]), 0.92.
Consider `Nc1nc2[nH]cc(CCc3ccc(C(=O)N[C@@H](CCC(=O)O)C(=O)O)cc3)c2c(=O)[nH]1` [PTX, pemetrexed], for which the “fold changes relative to vehicle control” value turned out to be 0.98 in [1]; 1.21 in assay [2]; 1.04 in assay [3]; 0.83 in assay [4]; 1.03 in assay [5]; 1.06 in [6]. In addition, the “fold changes relative to vehicle control” value in assay [7] was 1.06; in [8], 0.87; in assay [9], 0.96.
Turning to `Nc1nc2c(c(=O)[nH]1)N(C=O)C(CNc1ccc(C(=O)N[C@@H](CCC(=O)O)C(=O)O)cc1)CN2` (stereo partly drawn) [LEU, leucovorin], the “fold changes relative to vehicle control” value was found to be 0.98 in [1] (HeLa, protein SLC25A3); 1.17 in assay [2] (HeLa, protein HSPC152); 0.93 in [3] (protein PDIA4, HeLa); 1.09 in [4] (protein PDXK, HeLa); 1.02 in assay [5] (HeLa, protein PSMC5); 1.05 in assay [6] (setting [11]). Moreover, the “fold changes relative to vehicle control” value in assay [7] (HeLa, captured protein EIF3I) was found to be 1.06; in assay [8] (protein ZRANB2, HeLa), 0.82; in assay [9] (setting [12]) it was 1.06.
In the case of `CCCCCCOc1ccc(Cc2cnc(N)nc2N)cc1` [compound 1], the “fold changes relative to vehicle control” value came to 0.98 in assay [1] (HeLa, protein SLC25A3); 0.96 in assay [2] (HeLa, protein HSPC152); 1.76 fold in assay [3] (setting [10]); 1.03 in assay [4] (HeLa, protein PDXK); 1.07 in assay [5] (protein PSMC5, HeLa); 1.01 in [6] (HeLa, protein PRKDC). Moreover, the “fold changes relative to vehicle control” value in [7] (protein EIF3I, HeLa) came out at 0.96; in assay [8] (HeLa, protein ZRANB2) it was 1.04; in [9] (captured protein ZC3H11A, HeLa), 0.95.
In the case of `NCCCNc1ccc(C(=O)NC(CCC(=O)O)C(=O)O)cc1` (stereo not drawn) [compound 7], the “fold changes relative to vehicle control” value in assay [1] (HeLa, protein SLC25A3) came to 1.11; in [2] (HeLa, protein HSPC152) it was 1.29; in assay [3] (protein PDIA4, HeLa), 0.87; in [4] (protein PDXK, HeLa), 1.03; in [5] (HeLa, protein PSMC5), 1.04; in [6] (setting [11]), 1.16. Moreover, the “fold changes relative to vehicle control” value in [7] (HeLa, captured protein EIF3I) is given as 0.97; in assay [8] (protein ZRANB2, HeLa), 0.77; in [9] (setting [12]) it was 1.01.
In the case of `CCCCCCOc1cccc(Cc2cnc(N)nc2N)c1` [compound 2], the “fold changes relative to vehicle control” value in assay [1] (HeLa, protein SLC25A3) came out at 0.96; in assay [2] (HeLa, protein HSPC152) it was 1.18; in [3] (setting [10]), 2.84 fold; in assay [4] (HeLa, protein PDXK) it was 0.97; in assay [5] (protein PSMC5, HeLa), 1.36; in assay [6] (HeLa, protein PRKDC), 0.89. In addition, the “fold changes relative to vehicle control” value in [7] (protein EIF3I, HeLa) was 0.91; in assay [8] (HeLa, protein ZRANB2) it was 1.23; in assay [9] (captured protein ZC3H11A, HeLa) it was 1.01.
